Test results published in PMC11347150, “Aurora: a fluorescent deoxyribozyme for high-throughput screening” (Nucleic Acids Research, 2024).

Legend:
[1] = design: method as in PMID 9873685, PMID 18355003; settings: pH 10; cited from earlier work
Nsp15 = Nsp15 (Severe acute respiratory syndrome coronavirus 2, UniProt P0DTD1); settings: 1 mM ZnCl2, negative control wells
Description: Small molecules from a 1000-member fragment screen library (Maybridge) were transferred to the wells of 384-well plates using an Echo 550 liquid handler. Nsp15 protein in 1 × Nsp15 buffer (50 mM KCl, 20 mM HEPES pH 7.4, 5 mM MnCl2, 0.003% (v/v) Tween20) was then added using a CERTUS Flex liquid handler. After mixing, the Aurora Nsp15 sensor (in 1 × Nsp15 buffer) was added using a CERTUS Flex liquid handler. Reactions were mixed again. Final concentrations were 25 μM Aurora Nsp15 sensor, 400 nM Nsp15 protein, 1 × Nsp15 buffer (50 mM KCl, 20 mM HEPES pH 7.4 and 5 mM MnCl2), 0.003% (v/v) Tween20, and 200 μM small molecule from the fragment screen library in a volume of 20 μl. […] The reaction mixture was incubated at room temperature for 4 h, and fluorescence was measured using a Tecan Spark plate reader. Fluorescence was measured in a black flat bottom 384-well plate (Corning).
The average value of this background was subtracted from the fluorescence values obtained from all other wells. […] Activity of Nsp15 in the presence of small molecules from the fragment screen library was calculated relative to this positive control value. Z-factors ([22]) were calculated for each 384-well plate to determine the quality of the screen. […]

| Structure (SMILES) | Brightness (ϵ × Φ) [1] | Extinction coefficient (ϵ) [1] | Maximum emission wavelength (λem) [1] | Maximum excitation wavelength (λmax) [1] | Quantum yield (Φ) [1] | inhibition of Nsp15 (Nsp15) |
| --- | --- | --- | --- | --- | --- | --- |
| Cc1cc(=O)oc2cc(O)ccc12 [4-MU] | 10 710 M^−1 cm^−1 | 17 000 M^−1 cm^−1 | 450 nm | 360 nm | 0.63 | – |
| [Cl-].[Cl-].[Zn+2] [ZnCl2] | – | – | – | – | – | inhibited Nsp15 |
